In brackets after ≈: the same amount, converted by molar mass. Several values for one entry are separate records, joined by “and”; a condition that tells them apart may be missing. Equal entries are not always repeated. Where two headings read alike, the source gives them in different places.
Experiments:
[1] = tested on: MRSA (G+) strain ATCC 43300; experiment: Antimicrobial growth inhibition (CO-ADD), MRSA; type: cell-based, Staphylococcus aureus; conditions: for MIC: Staphylococcus aureus, read-out: MIC MRSA
Method: (§1) Compounds 1−3 and 5−12 were assayed against a selection of medically important pathogenic microorganisms (MRSA, E. coli, K. pneumoniae, A. baumanii, P. aeruginosa, C. albicans, C. neoformans), Table 4. […] To the best of our knowledge this compound had not been tested against any drug resistant strain of Gram-positive bacterium until this study.
(§2) The antimicrobial activity testing was performed by the Community for Antimicrobial Drug Discovery (CO-ADD). Compounds were assayed against a range of both Gram negative and Gram positive bacteria (see Supplementary Materials S3) including methicillin-resistant Staphylococcus aureus (MRSA) (G+), Escherichia coli (G-), Klebsiella pneumoniae (G-), Acinetobacter baumannii (G-), Pseudomonas aeruginosa (G-) together with two species of fungus (Candida albicans and Cryptococcus neoformans).
(§3) S3. Antimicrobial activity testing methodology
(§4) The compounds submitted to CO-ADD were evaluated in duplicate (n = 2) against seven microorganisms (five bacteria and two fungi) at a concentration of 32 µg/mL in a 384-well, non-binding surface plate (NBS) for each bacterial/fungal strain, keeping the final DMSO concentration to a maximum of 1% DMSO. All bacteria were cultured in cation-adjusted Mueller-Hinton broth (CAMHB) at 37 °C overnight. A sample of each culture was then diluted 40-fold in fresh broth and incubated at 37 °C for 1.5-3 h. The resultant mid-log phase cultures were diluted (CFU/mL measured by OD600), then added to each well of the compound containing plates, giving a cell density of 5x10^5 CFU/mL and a total volume of 50 µL. All the plates were covered and incubated at 37 °C for 18 h without shaking. […] Inhibition of bacterial growth was determined measuring absorbance at 600 nm (OD600) using a Tecan M1000 Pro mon-ochromator plate reader. […]
(§5) 2 h. The absorbance was measured using a Biotek Synergy HTX plate reader. The percentage of growth inhibition was calculated for each well, using negative control (medium only) and positive control (bacteria without inhibitors) on the same plate as the references. The significance of inhibition values was determined by modified Z-scores, calculated using the median and MAD of the samples (no controls) on the same plate. Samples with inhibition value above 80% and Z-score above 2.5 for either replicate (n = 2 on different plates) were classed as actives.
(§6) Colistin and vancomycin were used as positive bacterial inhibitor standards for Gram-negative and Gram-positive bac-teria, respectively. Fluconazole was used as a positive fungal inhibitor standard for C. albicans and C. neoformans. The antibiotics were provided in four concentrations, with two above and two below its MIC value, and plated into the first eight wells of column 23 of the 384-well NBS plates. The quality control (QC) of the assays was determined by the antimicrobial controls and the Z’-factor (using positive and negative controls). Each plate was deemed to fulfil the qual- […]
(§7) full growth inhibition at their highest concentration, and no growth inhibition at their lowest concentration. The seven […]
(§8) test microorganisms were Staphylococcus aureus MRSA (ATCC 43300), Escherichia coli (ATCC 25922), Klebsiella pneu-moniae (ATCC 700603), Acinetobacter baumanii (ATCC19606), Pseudomonas aeruginosa (ATCC 27853), Candida albicans (ATCC 90028) and Cryptococcus neoformans var. grubii (H99; ATCC 208821).
(§9) S4. Anthelmintic activity testing methodology
(§10) Dose-response evaluations were carried out to estimate the half-maximal inhibitory concentrations (IC50 values) for compounds against Haemonchus contortus (Haecon-5 strain) exsheathed third-stage larvae (xL3s). H. contortus were maintained in experimental sheep and procured in accordance with the institutional animal ethics guidelines and the regulations of Australia (permit no. 1714374; University of Melbourne). Immediately prior to use, third-stage larvae (L3s) were exsheathed and sterilised by incubation in 0.15% (v/v) bleach at 38 °C for 20 min, followed by washes in […]

human red blood cells = experiment: Haemolysis assay (CO-ADD); type: cell-based
[2] = tested on: C. albicans (yeast) ATCC 90028; experiment: Antimicrobial growth inhibition (CO-ADD), C. albicans; type: cell-based, Candida albicans; conditions: Candida albicans, ATCC90028; ATCC 90028; read-out: MIC C. albicans
Method: as §1, §2, §3
The compounds submitted to CO-ADD were evaluated in duplicate (n = 2) against seven microorganisms (five bacteria and two fungi) at a concentration of 32 µg/mL in a 384-well, non-binding surface plate (NBS) for each bacterial/fungal strain, keeping the final DMSO concentration to a maximum of 1% DMSO. All bacteria were cultured in cation-adjusted […]
Fungal strains were cultured for 3 days on Yeast Extract-Peptone Dextrose (YPD) agar at 30 °C. A yeast suspension of 1 x 10^6 to 5 x 10^6 CFU/mL (as determined by OD530) was prepared from five colonies. The suspension was subsequently diluted and added to each well of the compound-containing plates giving a final cell density of fungi suspension of 2.5 x 10^3 CFU/mL and a total volume of 50 µL. All plates were covered and incubated at 35 °C for 24 h without shaking. […]
as §5, §6, §7, §8, §9
Dose-response evaluations were carried out to estimate the half-maximal inhibitory concentrations (IC50 values) for compounds against Haemonchus contortus (Haecon-5 strain) exsheathed third-stage larvae (xL3s). H. contortus were maintained in experimental sheep and procured in accordance with the institutional animal ethics guidelines and the regulations of Australia (permit no. 1714374; University of Melbourne). Immediately prior to use, third-stage larvae (L3s) were exsheathed and sterilised by incubation in 0.15% (v/v) bleach at 38 °C for 20 min, followed by washes in sterile saline at room temperature (22-24 °C). […]

[3] = tested on: C. neoformans var. grubii strain ATCC 208821; experiment: Antimicrobial growth inhibition (CO-ADD), C. neoformans; type: cell-based; conditions: Cryptococcus neoformans, ATCC208821; var. grubii ATCC 208821; read-out: MIC C. neoformans
[4] = tested on: zebrafish larvae at 5 dpf; parameters: method as in PMID 35200664; conditions: cited from earlier work
[5] = Cytotoxicity assay (CO-ADD); type: cell-based; conditions: human, human embryonic kidney cells
[6] = tested on: E. Coli (G-) strain ATCC 25922; experiment: Antimicrobial growth inhibition (CO-ADD), E. coli; type: cell-based, Escherichia coli; conditions: for % inhibition E. coli: 32 µg/mL; for % inhibition E. coli / inhibition at 32 µg/mL: duplicate (n = 2) values; for inhibition at 32 µg/mL / MIC: Escherichia coli; for inhibition at 32 µg/mL: ATCC25922, 32 µg/mL, read-out: % inhibition E. coli; for MIC: ATCC25922, ATCC 25922, MIC = concentration at which growth inhibited by ≥80%, read-out: MIC E. coli
Method: as §1, §2, §3, §4, §5, §6, §7, §8, §9, §10

[7] = tested on: K. pneumoniae (G-) strain ATCC 700603; experiment: Antimicrobial growth inhibition (CO-ADD), K. pneumoniae; type: cell-based, Klebsiella pneumoniae; conditions: for % inhibition K. pneumoniae: 32 µg/mL; for MIC: ATCC700603, ATCC 700603, read-out: MIC K. pneumoniae
Method: as §1, §2, §3, §4, §5, §6, §7, §8, §9, §10

[8] = tested on: A. baumannii (G-) strain ATCC 19606; experiment: Antimicrobial growth inhibition (CO-ADD), A. baumannii; type: cell-based, Acinetobacter baumannii; conditions: Acinetobacter baumannii, ATCC19606; ATCC 19606; read-out: MIC A. baumannii
Method: as §1, §2, §3, §4, §5, §6, §7, §8, §9, §10

[9] = tested on: P. auruginosa (G-) strain ATCC 27853; experiment: Antimicrobial growth inhibition (CO-ADD), P. aeruginosa; type: cell-based, Pseudomonas aeruginosa; conditions: Pseudomonas aeruginosa, ATCC27853; ATCC 27853; read-out: MIC P. aeruginosa
Method: as §1, §2, §3, §4, §5, §6, §7, §8, §9, §10

[10] = ATCC 43300, MIC = concentration at which growth inhibited by ≥80%, range 0.25−32 µg/mL

MIC [2]	MIC [3]	MIC [1, 10]	MIC [6]	MIC ([7]; Klebsiella pneumoniae)	MIC [8]	MIC [9]	Structure (SMILES)	Haemolysis (HC10) (human red blood cells)	CC50 [5]	% inhibition E. coli [6]	inhibition at 32 µg/mL [6]	% inhibition K. pneumoniae ([7]; duplicate (n = 2) values)	further results
							CN[C@H](CC(C)C)C(=O)N[C@H]1C(=O)N[C@@H](CC(N)=O)C(=O)N[C@H]2C(=O)N[C@H]3C(=O)N[C@H](C(=O)N[C@H](C(=O)O)c4cc(O)cc(O)c4-c4cc3ccc4O)[C@H](O)c3ccc(c(Cl)c3)Oc3cc2cc(c3O[C@@H]2O[C@H](CO)[C@@H](O)[C@H](O)[C@H]2O[C@H]2C[C@](C)(N)[C@H](O)[C@H](C)O2)Oc2ccc(cc2Cl)[C@H]1O [Vancomycin, reference compound]						MIC [1]: 1 µg/mL
							CC[C@H](C)[C@H](NC(=O)CN)C(=O)NCC(=O)N[C@@H](C)C(=O)N[C@H](C(=O)N[C@@H](CC(C)C)C(=O)N[C@@H](CCCCN)C(=O)N[C@H](C(=O)N[C@@H](CC(C)C)C(=O)N[C@H](C(=O)N[C@H](C(=O)NCC(=O)N[C@@H](CC(C)C)C(=O)N1CCC[C@H]1C(=O)N[C@@H](C)C(=O)N[C@@H](CC(C)C)C(=O)N[C@H](C(=O)N[C@@H](CO)C(=O)N[C@@H](Cc1c[nH]c2ccccc12)C(=O)N[C@H](C(=O)N[C@@H](CCCCN)C(=O)N[C@@H](CCCNC(=N)N)C(=O)N[C@@H](CCCCN)C(=O)N[C@@H](CCCNC(=N)N)C(=O)N[C@@H](CCC(N)=O)C(=O)N[C@@H](CCC(N)=O)C(N)=O)[C@@H](C)CC)[C@@H](C)CC)[C@@H](C)O)[C@@H](C)O)C(C)C)C(C)C [Melittin, reference compound]	Melittin: 2.7 µg/mL					
0.125 µg/mL	8 µg/mL (≈ 26.1 µM)						OC(Cn1cncn1)(Cn1cncn1)c1ccc(F)cc1F [Fluconazole, reference compound]						
							COC1=C(Br)[C@H](O)[C@@]2(C=C1Br)CC(C(=O)NCCCc1cnc(N)[nH]1)=NO2 [aerophobin-2]						concentration giving significant larval mortality [4]: > 1000 nM
> 32 µg/mL	> 32 µg/mL	> 32 µg/mL	> 32 µg/mL	> 32 µg/mL	> 32 µg/mL	> 32 µg/mL	COC1(OC)C(Br)=CC(O)(CC#N)C=C1Br [Compound 7, 2-(3,5-dibromo-1-hydroxy-4,4-dimethoxycyclohexa-2,5-dien-1-yl)acetonitrile]	>32 µg/mL	> 32 µg/mL	6.2%	11.2%	13.3%	inhibition at 32 µg/mL ([7]; Klebsiella pneumoniae, ATCC700603, 32 µg/mL, duplicate (n = 2) values, read-out: % inhibition K. pneumoniae): 10.6%
> 32 µg/mL	> 32 µg/mL	> 32 µg/mL	> 32 µg/mL	> 32 µg/mL	> 32 µg/mL	> 32 µg/mL	COC(=O)NCCCCNC(=O)C1=NO[C@]2(C=C(Br)C(OC)=C(Br)[C@@H]2O)C1 [Compound 12, subereamolline C]	>32 µg/mL	> 32 µg/mL	6.4%	12.3%	14.0% and 5.6%	% inhibition MRSA ([1]; 32 µg/mL, duplicate (n = 2) values): 0.4% and 8.2%
